Test results: PMC9159852, “Synthesis, Structure, and Biologic Activity of Some Copper, Nickel, Cobalt, and Zinc Complexes with 2-Formylpyridine N^4-Allylthiosemicarbazone” (Bioinorganic Chemistry and Applications, 2022)
Where two headings read alike, the source gives them in different places.

Key:
[1] = tested on: human leukemia HL-60 cell line; assay: Antiproliferative activity (MTS and Resazurin assays), HL-60; format: cell-based; settings: for inhibition at 0.1 µM / inhibition at 1 µM / inhibition at 10 µM: read-out: Inhibition of cell proliferation, (%); for IC50: HL-60, Table 3; for SI (selectivity index): IC50(MDCK)/IC50(HL-60)
Procedure: (§1) The antiproliferative activity of the studied substances was determined toward a series of cancer cell lines (HL-60 (ATCC CCL-240), BxPC-3 (ATCC CRL-1687), HeLa (ATCC CCL-2), RD (ATCC CCL-136)), and a normal cell line (MDCK (ATCC CCL-34)). These cell lines were cultured in accordance with the previously described method. Determination of the number of viable cells after cultivation in the presence of various concentrations of the studied substances was carried out by the MTS and Resazurin assays according to the previously described method. The 10-mM stock solutions of the studied compounds as well as the reference compound (doxorubicin) were prepared by dissolving 10 μmol of the corresponding compound in 1 mL of DMSO. The 0.1, 1, 10, and 100 μM solutions were prepared by dilution of the stock solutions with the corresponding medium and used for the study of antiproliferative activity.

[2] = tested on: normal kidney epithelial (MDCK) cell line; assay: Antiproliferative activity (MTS and Resazurin assays), MDCK normal cell line; format: cell-based
Procedure: as §1

[3] = tested on: human cervical epithelial (HeLa) cell line; assay: Antiproliferative activity (MTS and Resazurin assays), HeLa; format: cell-based; settings: for IC50: HeLa; for SI (selectivity index): IC50(MDCK)/IC50(HeLa)
Procedure: as §1

[4] = tested on: human epithelial pancreatic adenocarcinoma (BxPC-3) cell line; assay: Antiproliferative activity (MTS and Resazurin assays), BxPC-3; format: cell-based; settings: for SI (selectivity index): IC50(MDCK)/IC50(BxPC-3)
Procedure: as §1

[5] = tested on: human muscle rhabdomyosarcoma (RD) cell line; assay: Antiproliferative activity (MTS and Resazurin assays), RD; format: cell-based; settings: for IC50: RD; for SI (selectivity index): IC50(MDCK)/IC50(RD)
Procedure: as §1

[6] = Acute toxicity assay against Daphnia magna; settings: Daphnia magna, in vivo, pH 7.5
Procedure: (§2) The general toxicity of the tested compounds was evaluated using Daphnia magna (Straus, 1820). Daphnia magna was originated from a culture maintained parthenogenetically at the Institute of Zoology (Laboratory of Systematics and Molecular Phylogeny).
(§3) The test design was based on ISO 6341 : 2012. The test-organisms Daphnia magna Straus were fed with Chlorella vulgaris. These unicellular algae were grown using aseptic technology to exclude contamination of the culture by bacteria, algae or protozoa. Chlorella vulgaris were cultivated in Prat's growth medium containing KNO3 (1 μM), MgSO4·7H2O (40 μM), K2HPO4·3H2O (400 μM), FeCl3·6H2O (3.6 μM) in H2O distilled (adjusted the pH to 7.0, autoclaved and stored at 5°C).
(§4) D. magna was maintained in aerated aqueous straw infusion growth media supplemented with CaCl2 ([…]), NaHCO3 (2.59 g/L), KCl (0.23 g/L), and MgSO4, 7H2O (4.93 g/L). (pH∼7.5 ± 0.2; O2 ≥ 6.0 mg/L).
(§5) Juveniles were selected according to their size and kept in fresh medium for 24 h. D. magna was cultured in Costar® 24-well culture clear sterile multiple well plates covered by a lid to prevent the possibility of contamination and evaporation but at the same time to allow gaseous exchange between air and culture medium. Each well contained 10 daphnids in 1000 μL final volume of each dilution of the tested compounds.
(§6) The bioassay was then repeated at the concentrations ranging from 0.1 to 100 μM (0.1, 1, 10, and 100 μM) in order to determine LC50 for each compound, including doxorubicin (the positive control). Aqueous straw infusion growth media was used to dilute the stock solutions to the required concentrations. […] A 0.1% solution of DMSO in aerated medium (pH∼7.5 ± 0.2; O2 ≥ 6.0 mg/L) was used as a negative control. Throughout the experiment, the juvenile daphnids were incubated at 22 ± 2 °C, using a 16 h/8 h light/dark cycle (500–1000 lx). The mobility (viability) of the test organisms was observed after the 24-h exposure. The experiment was performed in triplicate.
(§7) The percentage of viability (V (%)) of Daphnia magna was calculated according to the formula:(1) V%=Nsample/Ncontrol×100.
(§8) N - Number of viability of Daphnia magna.
(§9) The compounds median lethal concentration that kills 50% of the juvenile daphnids (LC50) values were calculated from the dose-response equation determined by the least squares fit method.

[7] = tested on: Daphnia magna; assay: Acute toxicity assay against Daphnia magna; settings: 24 h exposure; for LC50: Daphnia magna
Procedure: as §2, §3, §4, §5, §6, §7, §8, §9

[8] = tested on: Staphylococcus aureus (ATCC 25923); assay: Antibacterial activity, serial dilutions in liquid broth, S. aureus; format: cell-based; settings: S. aureus (G+)
Procedure: (§10) Antibacterial and antifungal properties of the studied substances were determined on a series of standard strains of Gram-positive microorganisms (Staphylococcus aureus (ATCC 25923)), Gram-negative microorganisms (Escherichia coli (ATCC 25922)), and fungi (Candida albicans (ATCC 10231)) using the method of serial dilutions in liquid broth. Stock solutions of the studied compounds as well as the reference compounds (furacillinum and nystatin) were prepared by dissolving 10 mg of the corresponding compound in 1 mL of DMSO. After that, the starting solutions (1 mg/mL) were prepared by tenfold dilution of the stock solution with nutrition medium (2% of peptonate bullion). The next dilutions were prepared by serial double dilution with the nutrition medium.

[9] = tested on: Escherichia coli (ATCC 25922); assay: Antibacterial activity, serial dilutions in liquid broth, E. coli; format: cell-based; settings: E. coli (G-)
Procedure: as §10

[10] = tested on: Candida albicans (ATCC 10231); assay: Antifungal activity, serial dilutions in liquid broth, C. albicans; format: cell-based
Procedure: as §10

[11] = Antiradical activity, ABTS•+ method; settings: read-out: IC50 toward ABTS•+ radical cation
Procedure: The ABTS^•+ method was applied for the determination of antiradical activity of the studied substances. Standard solutions of ABTS^•+ radical cations and tested substances as well as the conditions of spectrophotometric measurements and calculations of inhibition were made as described. The 10-mM stock solutions of the studied compounds as well as the reference compound (trolox) were prepared by dissolving 10 μmol of the corresponding compound in 1 mL of DMSO. The 1, 10, 100, and 1000 μM solutions were prepared by the dilution of stock solutions with DMSO. After that, 20 μL of each tested compound solutions was transferred in a 96-well microtiter plate, and 180 μL of ABTS^•+ working solution was added to receive solutions with final concentrations of tested compounds 0.1, 1, 10, and 100, respectively.

[12] = other: exposure in the test medium (immersion)

Compound | SI (selectivity index) [1] | SI (selectivity index) [3] | SI (selectivity index) [4] | SI (selectivity index) [5] | Inhibition of cell proliferation, (%) ([1]; HL-60, 0.1 μM) | Inhibition of cell proliferation, (%) ([1]; HL-60, 1 μM) | Inhibition of cell proliferation, (%) ([1]; HL-60, 10 μM) | IC50 [1] [nM] | IC50 [2] [nM] | IC50 [3] [nM] | IC50 ([4]; BxPC-3) [nM] | IC50 [5] [nM] | V, (%) percentage of viability of Daphnia magna ([7]; 0.1 μM) [%] | V, (%) percentage of viability of Daphnia magna ([7]; 1 μM) [%] | V, (%) percentage of viability of Daphnia magna ([7]; 10 μM) [%] | V, (%) percentage of viability of Daphnia magna ([7]; 100 μM) [%] | LC50 [7] [nM] | MBC [8] [µg/mL] | MIC [8] [µg/mL] | MIC [9] [µg/mL] | further results
COc1cccc2c1C(=O)c1c(O)c3c(c(O)c1C2=O)C[C@@](O)(C(=O)CO)C[C@@H]3O[C@H]1C[C@H](N)[C@H](O)[C@H](C)O1 [Doxorubicin, doxorubicin, reference compound] | 35.5 | 0.71 | 1.9 | 0.44 |  |  |  |  |  |  |  |  |  |  |  |  |  |  |  |  | inhibition at 0.1 µM ([1]; Homo sapiens, HL-60, 0.1 μM): 16.5 ± 1.8%; inhibition at 1 µM ([1]; Homo sapiens, HL-60, 1 μM): 92.9 ± 0.7%; inhibition at 10 µM ([1]; Homo sapiens, HL-60, 10 μM): 95 ± 0.6%; IC50 ([1]; Homo sapiens): 200 ± 100 nM; IC50 ([2]; Canis lupus familiaris): 7100 ± 300 nM; IC50 ([3]; Homo sapiens): 10000 ± 400 nM; IC50 ([4]; Homo sapiens, BXPC-3): 3700 ± 300 nM; IC50 ([5]; Homo sapiens): 16200 ± 600 nM; viability at 24 h, 0.1 µM [6, 12]: 87.2 ± 7.3%; viability at 24 h, 1 µM [6, 12]: 76.9 ± 7.3%; viability at 24 h, 10 µM [6, 12]: 25.6 ± 7.3%; viability at 24 h, 100 µM [6, 12]: 0%; LC50 at 24 h [6]: 3300 ± 1100 nM
C=CCNC(=S)N/N=C/c1cccnc1 [HL^a] |  |  |  |  |  |  |  |  |  |  |  |  |  |  |  |  |  |  |  |  | inhibition at 0.1 µM ([1]; Homo sapiens, HL-60, 0.1 μM): 0.9 ± 0.2%; inhibition at 1 µM ([1]; Homo sapiens, HL-60, 1 μM): 1.5 ± 0.5%; inhibition at 10 µM ([1]; Homo sapiens, HL-60, 10 μM): 6.1 ± 0.3%
C=CCNC(=NN=Cc1ccccn1)[S][Cu][Cl] [compound 2, [Cu(L)Cl]] | 30 | 7.5 | 60 | 23 | 40.2 ± 2.8 | 99.2 ± 0.2 | 99.4 ± 0.6 | 100 ± 60 | 3000 ± 400 | 400 ± 30 | 50 ± 20 | 130 ± 20 | 102.6 ± 0.0 | 97.4 ± 7.3 | 0.0 | 0.0 | 3500 ± 2800 | 0.244 | 0.122 | 3.91 | MBC [9]: 7.81 µg/mL; MFC [10]: 31.3 µg/mL; MIC [10]: 15.6 µg/mL; IC50 [11]: > 100000 nM
C=CCNC(=NN=Cc1ccccn1)[S][Cu][Br] [compound 3, [Cu(L)Br]] | 62 | 21 | 103 | 31 | 24.5 ± 1.9 | 100.0 ± 0.3 | 100.0 ± 0.1 | 100 ± 40 | 6200 ± 1400 | 300 ± 30 | 60 ± 10 | 200 ± 100 | 102.6 ± 0.0 | 97.4 ± 7.3 | 0.0 | 0.0 | 3500 ± 2800 | 0.488 | 0.244 | 7.81 | MBC [9]: 15.6 µg/mL; MFC [10]: 15.6 µg/mL; MIC [10]: 7.81 µg/mL; IC50 [11]: 43000 ± 2100 nM
C=CCNC(=NN=Cc1ccccn1)[S][Cu][O]C(C)=O.C=CCNC(=NN=Cc1ccccn1)[S][Cu][O]C(C)=O.O.O.O.O [compound 4, [Cu2(L)2(CH3COO)2]·4H2O] | 20 | 10 | 100 | 40 | 32.0 ± 2.3 | 99.8 ± 0.2 | 100.0 ± 0.2 | 100 ± 20 | 2000 ± 200 | 200 ± 20 | 20 ± 10 | 50 ± 10 | 76.9 ± 7.3 | 66.7 ± 7.3 | 0.0 | 0.0 | 1300 ± 500 | 0.488 | 0.244 | 1.95 | MBC [9]: 3.91 µg/mL; MFC [10]: 62.5 µg/mL; MIC [10]: 31.3 µg/mL; IC50 [11]: 40300 ± 1800 nM
C=CCNC(=S)NN=Cc1ccccn1.C=CCNC(=S)NN=Cc1ccccn1.O.[Cl-].[Cl-].[Ni+2] [compound 5, [Ni(HL)2]Cl2·H2O] | >1000 |  | >27 | >34 | 54.5 ± 1.1 | 94.9 ± 0.7 | 108.5 ± 0.5 | 90 ± 10 | > 100000 | > 100000 | 3600 ± 900 | 2900 ± 400 | 102.6 ± 0.0 | 102.6 ± 0.0 | 97.4 ± 7.3 | 87.2 ± 7.3 | > 100000 | 31.3 | 15.6 | 1000 | Effect on growth and proliferation of normal MDCK cell line (in words) [2]: practically do not affect the growth and proliferation; MIC [10]: 500 µg/mL; IC50 [11]: 8600 ± 100 nM
C=CCNC([S-])=NN=Cc1ccccn1.C=CCNC([S-])=NN=Cc1ccccn1.[Cl-].[Co+3] [compound 6, [Co(L)2]Cl] |  | >40 | >24 |  | 4.1 ± 0.3 | 6.9 ± 1.7 | 24.1 ± 0.6 | > 10000 | > 100000 | 2500 ± 500 | 4100 ± 500 | > 100000 | 97.4 ± 7.3 | 97.4 ± 7.3 | 92.3 ± 0.0 | 35.9 ± 7.3 | 65400 ± 11800 | 125 | 62.5 | 250 | Effect on growth and proliferation of normal MDCK cell line (in words) [2]: practically do not affect the growth and proliferation; MBC [9]: 500 µg/mL; MFC [10]: 250 µg/mL; MIC [10]: 62.5 µg/mL; IC50 [11]: > 100000 nM
